The values that follow come from patent US11236055B2 (Venenum Biodesign, LLC, priority 2016, dated 2022).

Structures are written as SMILES. Where only a bound is given, the exact number is not on record here.

One data set addresses T1, mouse TGR5 receptor (Mus musculus, UniProt Q80SS6).
T1 construct: expressed in transfected cells; host or cells: HEK293-EBNA (293 c18, ATCC CRL10852), Hygromycin B selection
T1 sequence (Q80SS6 1-329): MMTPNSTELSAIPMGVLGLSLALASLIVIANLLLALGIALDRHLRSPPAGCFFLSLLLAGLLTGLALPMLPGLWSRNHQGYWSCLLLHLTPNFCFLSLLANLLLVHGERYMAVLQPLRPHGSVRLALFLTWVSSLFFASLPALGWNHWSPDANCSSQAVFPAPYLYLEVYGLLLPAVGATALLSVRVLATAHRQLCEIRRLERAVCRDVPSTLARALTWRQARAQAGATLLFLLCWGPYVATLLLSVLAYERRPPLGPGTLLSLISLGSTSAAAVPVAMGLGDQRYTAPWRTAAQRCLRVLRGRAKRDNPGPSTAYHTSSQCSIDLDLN
The data set can be described thus: Mouse TGR5 cAMP production assay (HTRF, Cisbio cAMP HiRange). Conditions: HEK293-EBNA cells overexpressing mouse TGR5, HTRF cAMP HiRange; coded A-D. It is filed as cell-based. The procedure, abridged: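 cAMP read by HTRF competition after 1 h room-temperature compound exposure of mouse TGR5-overexpressing HEK293-EBNA cells. Cells were suspended in serum-free DMEM containing 500 μM IBMX; compounds ran as 12-point half-log dilutions in duplicate; EC50 derived.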

A further data set deals with Mouse STC-1 cells. Briefly: STC-1 GLP-1 assay. It is filed as cell-based. Conditions: GLP-1 secretion, 2 h, coded A-C, read-out: Mouse STC-1 HTRF GLP-1 Activity (EC50). On the procedure: We evaluated Compounds of the present invention for their ability to induce GLP-1 production in mouse intestinal neuroendocrine tumor cells. Mouse STC-1 cells were cultured and maintained in high glucose DMEM (Sigma #5796) supplemented with 15% horse serum, 5% Fetal Bovine Serum (FBS), 1% penicillin/streptomycin, and 2 mM L-alanine L-glutamine (GlutaMax). Two days prior to analysis of GLP-1 secretion cells were harvested using Accutase (Sigma), spun down then resuspended in high glucose DMEM media containing 2 mM L-alanine L-glutamine (GlutaMax), 10% charcoal-dextran stripped FBS, and 50 μg/mL Gentamicin, at a density of 100,000 cells/mL. 100 μL of cell suspension was added to each well of a 96-well Poly-D-Lysine coated culture plate (Sigma; cat #2382493) and was incubated at 37° C. with 5% CO2.
Compounds were initially diluted in 100% DMSO (12-point serial dilution by half logs) in a 96-well plate and then were further diluted 1:500 in Hanks' Balanced Salt Solution (HBSS) containing protease inhibitor cocktail, DPP-IV inhibitor, and 0.1% fatty acid free bovine serum albumin. On the day of the experiment cells were washed once with HBSS. After wash, 100 μL of test compound was added to each well. The plate was incubated at 37° C. with 5% CO2 for 2 h. Supernatants were collected and GLP-1 secretion was measured using the Cisbio™ Active GLP-1 HTRF Assay Kit (Cisbio). Briefly, Anti-GLP-1-d2 conjugate and Anti-GLP-1 Terbium Cryptate conjugate stock solutions were prepared as per kit instructions. The two solutions were pre-mixed and 10 μL were transferred to a 384-well low volume plate (Greiner; cat #784075). 10 μL of collected supernatants were added to wells already containing the conjugate solution. The plate was covered and incubated at room temperature overnight. The plate was read on an Envision™ plate reader (Perkin Elmer).
In Table 34, EC50 values obtained from the STC-1 GLP-1 production assay for compounds of the present invention are summarized.

The next data set has as its target T2, human TGR5 receptor (Homo sapiens, UniProt Q8TDU6).
T2 construct: host or cells: CHO-K1 (hTGR5-CHO cells)
T2 sequence (Q8TDU6 1-330): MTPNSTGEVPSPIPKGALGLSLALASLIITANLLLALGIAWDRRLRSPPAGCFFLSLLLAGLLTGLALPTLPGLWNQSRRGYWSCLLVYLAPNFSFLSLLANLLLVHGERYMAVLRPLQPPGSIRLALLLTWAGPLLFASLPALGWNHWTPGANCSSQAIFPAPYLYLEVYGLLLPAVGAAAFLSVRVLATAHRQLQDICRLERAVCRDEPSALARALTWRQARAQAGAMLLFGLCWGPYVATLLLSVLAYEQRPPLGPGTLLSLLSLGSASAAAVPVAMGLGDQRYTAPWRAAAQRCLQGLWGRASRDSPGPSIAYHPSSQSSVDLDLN
Briefly: Human TGR5 cAMP production assay. It is filed as cell-based. Conditions: human TGR5, luminescent cAMP assay; coded A-D; read-out: Human TGR5 Lum. cAMP Activity (EC50). The essentials: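 CHO-K1 cells stably expressing human TGR5, with IBMX and cAMP antibody, were exposed to half-log serially diluted compound for 1 h at room temperature. cAMP measured by enzyme-fragment complementation luminescence (XS+ kit) after overnight incubation; EC50 values reported.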

Data set [1] can be described thus: Pharmacokinetic profile in mice. It counts as in vivo. Conditions: mouse; fasted male Hilltop mice, 10 mg/kg oral gavage, plasma, mean of three mice. On the procedure:
Pharmacokinetic Profile in Mice
In this series of studies, the pharmacokinetic profile characteristics of compounds of the present invention were evaluated. The plasma concentration levels of the compounds were monitored in the blood stream (i.e., plasma) after oral gavage using Cmax, and area under the curve (AUC).
8 week old male Hilltop mice were fasted overnight. Animals were randomized into groups (n=9) by body weight. Mice were dosed with 10 mg/kg compound (in 20% PEG400/80% 0.5% carboxymethylcellulose (medium viscosity)+0.25% Tween-80) at a volume of 10 mL/kg through oral gavage. Blood was collected via orbital bleeding at 0, 0.25, 0.5, 1, 2, and 4 h post-dose, with no one mouse having more than 3 blood draws. Blood was collected in EDTA coated tubes. Samples were stored at −20° C. until analysis.
Quantitation of compound levels in plasma was accomplished by LC-MS/MS analysis. Standard curve and quality control samples were prepared in male CD-1 mouse plasma containing EDTA K^2+ as an anticoagulant at final concentrations ranging from 500 to 0.1 ng/mL. The plasma samples, calibration curve standards, and quality control samples were prepared in an identical method in a 96-well deep plate (1 mL) with a quenching solution (1:1 mixed acetonitrile:methanol containing the internal standard Reserpine @ 400 ng/mL). Low volume samples were supplemented with CD-1 mouse plasma. The plate was mixed on multi-tube votex for 1 min and centrifuged at 4000 rpm for 30 min at 4° C. (Sorvall® Super T21) before LC-MS/MS analysis. LC conditions were developed and optimized based on each compound as needed. The outlet of the column was coupled to AB Sciex 4000 QTrap Mass Spectrometer (AB Sciex, Brugg Switzerland). Detection was carried out using multiple reaction monitoring mode with positive-ion detection focusing. The pharmacokinetic parameters were derived from the plasma-time data and calculated using the standard non-compartmental method with WinNonlin (Pharsight, Mountain View, Calif.) or PK Solver (Comp. Meth. Prog. Biomed. (2010), 99, 306-314).
Values reported are the mean plasma concentration of three mice.

As to `Cc1cnccc1-c1cccc(C(NS(=O)(=O)c2ccccc2C(F)(F)F)C2CC2)c1` (racemic) [Compound 5AV, (+/−)N-(cyclopropyl(3-(3-methylpyridin-4-yl)phenyl)-methyl)-2-(trifluoromethyl)benzenesulfonamide], the 50% effective concentration (EC50) is 100 to 999 nM at mouse TGR5 receptor, 1000 to 30000 nM with Mouse STC-1 cells and under 100 nM at human TGR5 receptor.

`Cc1cnccc1-c1cccc(C2CN(CCCC(=O)NCS(=O)(=O)O)CCN2S(=O)(=O)c2cccc(Cl)c2C)c1` (stereo not drawn) [Compound 53, (4-(4-((3-Chloro-2-methylphenyl)sulfonyl)-3-(3-(3-methylpyridin-4-yl)phenyl)piperazin-1-yl)butanamido)methanesulfonic acid]: the EC50 was under 100 nM at mouse TGR5 receptor, 100 to 999 nM with Mouse STC-1 cells and 100 to 999 nM at human TGR5 receptor.

Turning to `COC(=O)CN(C(C)(C)c1cccc(-c2ccncc2C)c1)S(=O)(=O)c1ccccc1C(F)(F)F` [Compound 13, Methyl 2-(N-(2-(3-(3-methylpyridin-4-yl)phenyl)propan-2-yl)-2-(trifluoromethyl)phenylsulfonamido)acetate], the EC50 at mouse TGR5 receptor was 100 to 999 nM; with Mouse STC-1 cells, 1000 to 30000 nM; on human TGR5 receptor, under 100 nM.

Regarding `CCOC(=O)C[C@H](NS(=O)(=O)c1ccccc1C(F)(F)F)c1cccc(-c2ccncc2C)c1` [Compound 18A, (S)-ethyl 3-(3-(3-methylpyridin-4-yl)phenyl)-3-(2-(trifluoromethyl)phenylsulfonamido)-propanoate], the values for the concentration giving a half-maximal response (EC50) on mouse TGR5 receptor, in the data set on Mouse STC-1 cells and on human TGR5 receptor were under 100 nM, 1000 to 30000 nM and under 100 nM, respectively.

As to `Cc1cnccc1-c1cccc(C(C)(C)N(CCCC(=O)NCCS(=O)(=O)O)S(=O)(=O)c2cccc(Cl)c2C)c1` [Compound 20AG, 2-(4-(3-chloro-2-methyl-N-(2-(3-(3-methylpyridin-4-yl)phenyl)propan-2-yl)phenylsulfonamido)butanamido)ethanesulfonic acid], the EC50 on mouse TGR5 receptor and on human TGR5 receptor was under 100 nM in each case. For the same compound, the Cmax in data set [1] was 1.4 ng/mL.

Take `CCc1cnccc1-c1cccc(C2CN(CCCC(=O)O)CCN2S(=O)(=O)c2cccc(Cl)c2C)c1` (stereo not drawn) [Compound 52AA, 4-(4-((3-chloro-2-methylphenyl)sulfonyl)-3-(3-(3-ethylpyridin-4-yl)phenyl)piperazin-1-yl)butanoic acid]: the EC50 on mouse TGR5 receptor and on human TGR5 receptor was under 100 nM throughout. The peak level in data set [1] (Cmax) was 647 ng/mL.

With `Cc1cnccc1-c1cccc([C@H](C)N(CCCC(=O)NCCNS(N)(=O)=O)S(=O)(=O)c2cccc(Cl)c2C)c1` [Compound 37, (S)-4-(3-chloro-2-methyl-N-(1-(3-(3-methylpyridin-4-yl)phenyl)ethyl)phenylsulfonamido)-N-(2-(sulfamoylamino)ethyl)butanamide], the EC50 on mouse TGR5 receptor and at human TGR5 receptor was under 100 nM throughout. Moreover, the peak concentration (Cmax) in data set [1] was found to be 122 ng/mL.

As for `Cc1cnccc1-c1cccc([C@H](C)N(CCCC(=O)NCCS(=O)(=O)NCC(=O)O)S(=O)(=O)c2cccc(Cl)c2Cl)c1` [Compound 36AA, (S)-2-(4-(3-chloro-N-(1-(3-(3-methylpyridin-4-yl)phenyl)ethyl)-2-chloro-phenylsulfonamido)butanamido)ethanesulfonamido acetic acid], the half-maximal effective concentration (EC50) on mouse TGR5 receptor and at human TGR5 receptor was under 100 nM throughout. In data set [1], this compound came in with a Cmax of 7.5 ng/mL.

Turning to `Cc1cnccc1-c1cccc(C(C)(C)N(CCCNC(=O)NCCS(N)(=O)=O)S(=O)(=O)c2cccc(Cl)c2C)c1` [Compound 29AB], the EC50 at mouse TGR5 receptor and at human TGR5 receptor was under 100 nM in each case. The compound further displayed a Cmax in data set [1] of 109 ng/mL.

On to `CCc1cnccc1-c1cccc(C2CN(C(=O)COCC(=O)O)CCN2S(=O)(=O)c2cccc(Cl)c2C)c1` (stereo not drawn) [Compound 46AB, 2-(2-(4-((3-chloro-2-methylphenyl)sulfonyl)-3-(3-(3-ethylpyridin-4-yl)phenyl)piperazin-1-yl)-2-oxoethoxy)acetic acid], for which the EC50 at mouse TGR5 receptor and at human TGR5 receptor was under 100 nM in each case. In data set [1], this compound gave a Cmax of 4.5 ng/mL.

Consider `Cc1cnccc1-c1cccc(C(C)(C)N(CCCC(=O)NCC(N)=O)S(=O)(=O)c2cccc(Cl)c2C)c1` [Compound 21AC, N-(2-amino-2-oxoethyl)-4-(3-chloro-2-methyl-N-(2-(3-(3-methylpyridin-4-yl)phenyl)propan-2-yl)phenylsulfonamido)butanamide], for which the EC50 on mouse TGR5 receptor and at human TGR5 receptor was under 100 nM each time. The concentration in data set [1] peaked (Cmax) at 269 ng/mL.

With `Cc1cnccc1-c1cccc(C(C)(C)N(CCCC(=O)NCCS(N)(=O)=O)S(=O)(=O)c2cccc(Cl)c2C)c1` [Compound 20AE, 4-(3-chloro-2-methyl-N-(2-(3-(3-methylpyridin-4-yl)phenyl)propan-2-yl)phenylsulfonamido)-N-(2-sulfamoylethyl)butanamide], the EC50 on mouse TGR5 receptor and on human TGR5 receptor was under 100 nM throughout. The same compound registered a maximum concentration (Cmax) in data set [1] of 128 ng/mL.

As for `Cc1cnccc1-c1cccc(C2(N(CCCC(=O)NCCS(=O)(=O)O)S(=O)(=O)c3cccc(Cl)c3C)COC2)c1` [Compound 20BN, 2-(4-(3-chloro-2-methyl-N-(3-(3-(3-methylpyridin-4-yl)phenyl)oxetan-3-yl)phenylsulfonamido)butanamido)ethanesulfonic acid], the EC50 is 100 to 999 nM on mouse TGR5 receptor and under 100 nM at human TGR5 receptor. In data set [1], this compound registered a maximum concentration (Cmax) of 478 ng/mL.

For `CCc1cnccc1-c1cccc(C2CN(S(=O)(=O)CC(=O)O)CCN2S(=O)(=O)c2cccc(Cl)c2C)c1` (stereo not drawn) [Compound 47, 2-((4-((3-Chloro-2-methylphenyl)sulfonyl)-3-(3-(3-ethylpyridin-4-yl)phenyl)piperazin-1-yl)sulfonyl)acetic acid], the EC50 at mouse TGR5 receptor and on human TGR5 receptor was under 100 nM in each case. The concentration in data set [1] peaked (Cmax) at 228 ng/mL.
